Data on one molecule can be found in patent US20110183942A1, “Methods and Compositions for Treating Alzheimer's Disease” (UNIVERSITY OF MEDICINE AND DENTISTRY OF NEW JERSEY, priority 2008, published 2011).

“Also recorded” adds a separate entry of the source.

Holding throughout (format): cell-based, mouse
One assay relates to phospho-eEF2. As to the kind of experiment: Phospho-eEF2 in hippocampal slices (immunohistochemistry, Western blot). Particulars: WT hippocampal slices, DHPG 50 μM, 5 min. The procedure: (§1) Transfected HEK293T cells or cultured neurons were treated with various drugs and then harvested in IP buffer supplemented with 1% Triton X-100 buffer and Complete™ EDTA-Free protease inhibitors. Soluble fractions were diluted with 4× SDS sample buffer.
Samples were separated electrophoretically using NuPAGE 4-12% Bis-Tris gels (Invitrogen) and transferred to an Immobilon-P PVDF membrane (Millipore). The membrane was blocked with TBST (50 mM Tris, pH 7.5, with 150 mM NaCl, and 0.1% Tween-20) containing 5% non-fat milk for one hour at room temperature, followed by incubation with primary antibody in TBST buffer overnight at 4° C. After three washes with TBST buffer, membranes were incubated with HRP-conjugated anti-rabbit, or anti-mouse antibody in TBST for another hour. After three washes with TBST buffer, the membrane was treated with SuperSignal ECL substrate (Pierce) according to the manufacturer's protocol.
Immunohistochemistry of phospho-eEF2 in WT and eEF2K mice was performed as described (Ramirez-Amaya et al., J. Neurosci. 25, 1761-1768 (2005)) with slight modifications. […] The signals were visualized using the cyanine 3 (CY3) TSA fluorescence system (PerkinElmer Life Sciences), and the nuclei were stained with DAPI (Molecular Probes). No staining was detected in the absence of the primary or secondary antibodies. No phospho-eEF2 signal was detected in eEF2K KO sections.

Assay [1] has as its system Arc protein in DIV14 hippocampal neurons. The experiment in a line: Arc immunocytochemistry in cultured hippocampal neurons. The procedure: Immunocytochemistry of cultured neurons was performed as described (Shepherd et al., Neuron, 52, 475-484 (2006)). Briefly, DIV14 primary hippocampal neurons were fixed in fixation solution (4% paraformaldehyde, 4% sucrose containing 1× PBS) for 20 min at 4° C. and were permeabilized with 0.2% Triton X-100 in PBS for 10 min 4° C. Cells were then blocked for 1 hr at room temperature in 10% normal goat serum (NGS). Primary antibodies were diluted (1:250 of phospho-eEF2 antibody, 1:500 of PSD95, 1:300 for Arc) in 10% NGS and incubated with neurons for overnight at 4° C. Alexa 488, or Alexa 555-conjugated secondary antibodies (1:500; Molecular Probes) were diluted in 10% NGS and incubated at room temperature for 1 hr. Coverslips were mounted with PermaFluor containing DAPI (Invitrogen). All images were taken with same exposure and setting using Zeiss 510 Meta confocal microscope. Quantification of Arc levels was carried out using Image J software. For the measurement of dendritic Arc levels, average pixel intensity was measured in the primary dendrites 20 μm away from the soma.

Assay [2] relates to Arc protein in DIV14 forebrain neurons. As to the kind of experiment: Western blot of Arc protein in cultured forebrain neurons. The method, then: For biochemistry experiments, 0.4×10^6 neurons were added to each well of a 6-well plate (Coming) coated with poly-L-lysine. Growth medium consisted of NeuroBasal (Invitrogen) supplemented with 1% fetal bovine serum (Hyclone), 2% B27, 1% Glutamax (Invitrogen), 100 U/mL penicillin, and 100 U/mL streptomycin (Invitrogen). Neurons were fed twice per week with glia conditioned growth medium.
as §1
The membrane was blocked with TBST (50 mM Tris, pH 7.5, with 150 mM NaCl, and 0.1% Tween-20) containing 5% non-fat milk for one hour at room temperature, followed by incubation with primary antibody in TBST buffer overnight at 4° C. After three washes with TBST buffer, membranes were incubated with HRP-conjugated anti-rabbit, or anti-mouse antibody in TBST for another hour. After three washes with TBST buffer, the membrane was treated with SuperSignal ECL substrate (Pierce) according to the manufacturer's protocol.
To reduce the background signal in the co-IP assay, HRP-conjugated HA or HPR conjugated myc antibody (Santa Cruz) was used when overexpressed proteins were tagged with HA or myc. […] Image J software (NIH) was used for quantification.

For `NC(C(=O)O)c1cc(O)cc(O)c1` (racemic) [DHPG, (R,S)-3,5-DHPG], in the assay with phospho-eEF2, the phospho-eEF2 level result was “dramatically increased”. The “Arc immunoreactivity in dendrites” value in assay [1] (DHPG 50 μM 5 min, relative to untreated dendrites) is reported as 1.58±0.095. For the same molecule, in assay [1] (DHPG 50 μM 5 min, relative to untreated soma), the “Arc immunoreactivity in cell body” value was found to be 1.34±0.063. Further, in assay [1] (eEF2K KO hippocampal neurons), the “level of Arc in soma or dendrites after DHPG” value is “did not change the level of Arc”. The “rapid increase of Arc protein following DHPG stimulation” value in assay [2] (Fmr1 KO neurons) is given as “absent”. Besides, the “level of Arc protein after DHPG” value in assay [2] (WT neurons, DHPG 50 μM, 5 min) was “significantly increased the level of Arc; also recorded: induced”. Moreover, the “increase in Arc protein 5 min after DHPG” value in assay [2] (eEF2K KO neurons) is given as “absent”.
